Data taken from PubChem BioAssay (NCI).
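1) Cells in 96-well plates. 2) Compound, 48 h, 5 concentrations. 3) Linear interpolation between surrounding doses. 4) Unreached endpoint = highest concentration. Definition used: TGI = concentration required for complete inhibition of growth.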

Legend:
Test in all cases: inhibition of tumour cell growth, NCI panel, 48 h
A498 renal = system: A498 renal
RPMI-8226 leukemia = system: RPMI-8226 leukemia
SK-MEL-5 melanoma = system: SK-MEL-5 melanoma
M14 melanoma = system: M14 melanoma
K-562 leukemia = system: K-562 leukemia
SNB-19 CNS = system: SNB-19 CNS
HOP-62 NSCLC = system: HOP-62 NSCLC
SK-MEL-2 melanoma = system: SK-MEL-2 melanoma
UACC-257 melanoma = system: UACC-257 melanoma
786-0 renal = system: 786-0 renal
OVCAR-8 ovarian = system: OVCAR-8 ovarian
HT29 colon = system: HT29 colon
CAKI-1 renal = system: CAKI-1 renal
NCI-H460 lung = system: NCI-H460 lung
SF-295 CNS = system: SF-295 CNS
SF-268 CNS = system: SF-268 CNS
OVCAR-4 ovarian = system: OVCAR-4 ovarian
A549 NSCLC = system: A549 NSCLC
NCI-H23 lung = system: NCI-H23 lung
HCC-2998 colon = system: HCC-2998 colon
COLO 205 colon = system: COLO 205 colon
MALME-3M melanoma = system: MALME-3M melanoma
SNB-75 CNS = system: SNB-75 CNS
M19-MEL melanoma = system: M19-MEL melanoma
HCT-116 colon = system: HCT-116 colon
CCRF-CEM leukemia = system: CCRF-CEM leukemia
DMS 273 small cell lung = system: DMS 273 small cell lung
SN12C renal = system: SN12C renal
HL-60(TB) leukemia = system: HL-60(TB) leukemia
MOLT-4 leukemia = system: MOLT-4 leukemia
LXFL 529 NSCLC = system: LXFL 529 NSCLC
DLD-1 colon = system: DLD-1 colon
LOX IMVI melanoma = system: LOX IMVI melanoma
ACHN renal = system: ACHN renal
SW-620 colon = system: SW-620 colon
SF-539 CNS = system: SF-539 CNS
XF 498 CNS = system: XF 498 CNS
UACC-62 melanoma = system: UACC-62 melanoma
U251 CNS = system: U251 CNS
EKVX NSCLC = system: EKVX NSCLC
DMS 114 small cell lung = system: DMS 114 small cell lung
KM12 colon = system: KM12 colon
UO-31 renal = system: UO-31 renal
TK-10 renal = system: TK-10 renal
IGROV1 ovarian = system: IGROV1 ovarian
SR leukemia = system: SR leukemia
RXF 393 renal = system: RXF 393 renal
HCT-15 colon = system: HCT-15 colon
KM20L2 colon = system: KM20L2 colon
NCI-H522 lung = system: NCI-H522 lung
NCI-H226 lung = system: NCI-H226 lung
HOP-18 NSCLC = system: HOP-18 NSCLC
SK-OV-3 ovarian = system: SK-OV-3 ovarian
SNB-78 CNS = system: SNB-78 CNS
HOP-92 NSCLC = system: HOP-92 NSCLC
OVCAR-5 ovarian = system: OVCAR-5 ovarian
OVCAR-3 ovarian = system: OVCAR-3 ovarian
SK-MEL-28 melanoma = system: SK-MEL-28 melanoma

Measured: TGI

CC(=O)Nc1ccc(S(=O)(=O)N/N=C/CN2C(=O)c3ccccc3C2=O)cc1
not listed: HOP-18 NSCLC | SK-OV-3 ovarian | SNB-78 CNS | HOP-92 NSCLC | OVCAR-5 ovarian | OVCAR-3 ovarian | SK-MEL-28 melanoma
> 100 µM: all other assays above

NC(=O)CN(CC(N)=O)C(N)=O
not listed: HOP-62 NSCLC | HCC-2998 colon | SN12C renal | DLD-1 colon | SR leukemia
> 100 µM: all other assays above

NC(=O)c1cccc([N+](=O)[O-])c1
not listed: OVCAR-4 ovarian | HCT-116 colon | ACHN renal | SR leukemia | RXF 393 renal | HOP-18 NSCLC | HOP-92 NSCLC | OVCAR-5 ovarian
> 100 µM: all other assays above

NNC(=O)C1CCC(=O)N1S(=O)(=O)c1ccccc1 (stereo not given)
not listed: A498 renal | HOP-18 NSCLC
> 100 µM: all other assays above
